We go through 33 compounds from US9204653B2, “5-fluoro pyrimidine derivatives” (DOW AGROSCIENCES LLC, priority 2008, dated 2015).

In the experiment the test system is Mycosphaerella graminicola; Anamorph: Septoria tritici; Bayer Code SEPTTR. The experiment is described as follows: Leaf blotch of wheat, foliar fungicide treatment, one day protectant (1DP) or three day curative (3DC). The note with it: Zymoseptoria tritici; for pest or weed control at 50 ppm / pest or weed control at 200 ppm: % disease control rating. It is filed as in vivo, Septoria tritici on wheat plants (variety Yuma).

[1] abbreviates: 24 h, one day protectant (1DP), 25 ppm, rating of percent disease control, read-out: SETTTR 1DP 25 ppm.
The mark [2] stands for this setting: 24 h, one day protectant (1DP), rating of percent disease control, read-out: SEPTTR 1DP 100 ppm.
Where [3] appears, read: 72 h, three day curative (3DC), 25 ppm, rating of percent disease control, read-out: SEPTTR 3DC 25 ppm.
The mark [4] stands for this setting: 72 h, three day curative (3DC), rating of percent disease control, read-out: SEPTTR 3DC 100 ppm.
[5] abbreviates: 24 h, one day protectant (1DP), 25 ppm (first 1DP column), percent control rating, read-out: SETTTR 1DP 25 ppm.
Setting [6] is: 24 h, one day protectant (1DP), 25 ppm as printed (second 1DP column), percent control rating, read-out: SETTTR 1DP 25 ppm.
The mark [7] stands for this setting: 72 h, three day curative (3DC), 25 ppm, percent control rating, read-out: SEPTTR 3DC 25 ppm.
The mark [8] stands for this setting: 72 h, three day curative (3DC), percent control rating, read-out: SEPTTR 3DC 100 ppm.
[9] abbreviates: 24 h, one day protectant, 25 ppm, rating of percent disease control, read-out: SETTTR 1DP 25 ppm.
The mark [10] stands for this setting: 24 h, one day protectant, rating of percent disease control, read-out: SEPTTR 1DP 100 ppm.
[11] abbreviates: 72 h, three day curative, 25 ppm, rating of percent disease control, read-out: SEPTTR 3DC 25 ppm.
Setting [12] is: 72 h, three day curative, rating of percent disease control, read-out: SEPTTR 3DC 100 ppm.
[13] abbreviates: 24 h, one day protectant (1DP), 25 ppm, percent disease control rating, read-out: SETTTR 1DP 25 ppm.
[14] abbreviates: 24 h, one day protectant (1DP), percent disease control rating, read-out: SEPTTR 1DP 100 ppm.
Setting [15] is: 72 h, three day curative (3DC), 25 ppm, percent disease control rating, read-out: SEPTTR 3DC 25 ppm.
The mark [16] stands for this setting: 72 h, three day curative (3DC), percent disease control rating, read-out: SEPTTR 3DC 100 ppm.

Where two headings read alike, the source gives them in different places.

Take `COc1cccc(COc2ncc(F)c(NC(=O)Nc3ccccc3F)n2)c1` [Compound 535]: the pest or weed control at 25 ppm was 0 to 25% under setting [1] and 0 to 25% under setting [3]. In addition, the pest or weed control at 100 ppm reads like this: under setting [2], 0 to 25%; under setting [4], 0 to 25%.

For `COc1ccnc(Cl)c1S(=O)(=O)Nc1nc(OCc2ccc(C)cc2)ncc1F` [Compound 1016], the pest or weed control at 25 ppm is 0 to 25% under setting [5], 0 to 25% under setting [6] and 51 to 75% under setting [7]. Further, the pest or weed control at 100 ppm under setting [8] is 51 to 75%.

As for `COc1cccc(COc2ncc(F)c(NC(C)=O)n2)c1` [Compound 550], the pest or weed control at 25 ppm under setting [9] is 76 to 100% and the pest or weed control at 25 ppm under setting [11] was in the range of 76 to 100%. The pest or weed control at 100 ppm was 76 to 100% under setting [10] and 76 to 100% under setting [12].

Turning to `CC(Oc1ncc(F)c(NSc2ccccc2[N+](=O)[O-])n1)c1ccc(F)cc1` (centres unmarked) [Compound 126], the pest or weed control at 25 ppm by setting is: under setting [13], 76 to 100%; under setting [15], 76 to 100%. Moreover, the pest or weed control at 100 ppm was in the range of 76 to 100% under setting [14] and 76 to 100% under setting [16].

Regarding `Fc1cnc(OCCc2ccccc2)nc1NC1CC1` [Compound 940], for the setting “24 h, one day protectant”, the pest or weed control at 50 ppm was 0 to 25% and the pest or weed control at 200 ppm was 0 to 25%.

For `COc1ncc(F)c(N/N=C(\C)c2sc(C)nc2C)n1` [Compound 1025], the pest or weed control at 25 ppm lay within 0 to 25% under setting [5], 0 to 25% under setting [6] and 26 to 50% under setting [7]. Also, under setting [8], the pest or weed control at 100 ppm was 0 to 25%.

Take `CN(/C=N/c1nc(OCc2ccc(F)cc2)ncc1F)Cc1ccccc1` [Compound 292]: the pest or weed control at 25 ppm reads like this: under setting [1], 76 to 100%; under setting [3], 76 to 100%. The pest or weed control at 100 ppm under setting [2] fell in the range of 76 to 100% and the pest or weed control at 100 ppm under setting [4] lay within 76 to 100%.

Turning to `COc1ncc(F)c(NOCCOc2ccccc2)n1` [Compound 1081], the pest or weed control at 25 ppm by setting is: under setting [5], 0 to 25%; under setting [6], 0 to 25%; under setting [7], 0 to 25%. The pest or weed control at 100 ppm under setting [8] fell in the range of 0 to 25%.

For `CC(C)COC(=O)Oc1ncc(F)c(/N=C/N(C)C)n1` [Compound 788], the pest or weed control at 25 ppm under setting [1] was in the range of 76 to 100% and the pest or weed control at 25 ppm under setting [3] fell in the range of 76 to 100%. The pest or weed control at 100 ppm under setting [2] is 76 to 100% and the pest or weed control at 100 ppm under setting [4] is 76 to 100%.

For the compound `CC(Oc1ncc(F)c(NC(=O)OCc2ccccc2)n1)c1ccc(F)cc1` (centres unmarked) [Compound 771], the pest or weed control at 25 ppm under setting [1] lay in the range of 76 to 100% and the pest or weed control at 25 ppm under setting [3] was 76 to 100%. Besides, the pest or weed control at 100 ppm is 76 to 100% under setting [2] and 76 to 100% under setting [4].

For `CCCNC(=S)Nc1nc(OCc2cccc(C#N)c2)ncc1F` [Compound 706], the pest or weed control at 25 ppm lay in the range of 0 to 25% under setting [9] and 0 to 25% under setting [11]. Moreover, the pest or weed control at 100 ppm lay within 76 to 100% under setting [10] and 51 to 75% under setting [12].

`CC(C)S(=O)(=O)Nc1nc(OCc2ccccc2)ncc1F` [Compound 1009]: the pest or weed control at 25 ppm lay in the range of 0 to 25% under setting [5], 0 to 25% under setting [6] and 0 to 25% under setting [7]. Further, the pest or weed control at 100 ppm under setting [8] lay in the range of 0 to 25%.

Consider `C=CCOc1ncc(F)c(NNC(=O)c2cccc(C)c2)n1` [Compound 959, N′-(2-(allyloxy)-5-fluoropyrimidin-4-yl)-3-methylbenzohydrazide], for which the pest or weed control at 25 ppm is 0 to 25% under setting [5], 0 to 25% under setting [6] and 0 to 25% under setting [7]. For the same compound, the pest or weed control at 100 ppm under setting [8] lay in the range of 0 to 25%.

Regarding `COc1cccc(COc2ncc(F)c(NNc3nccc(C(F)(F)F)n3)n2)c1` [Compound 1045], the pest or weed control at 25 ppm by setting is: under setting [5], 0 to 25%; under setting [6], 0 to 25%; under setting [7], 0 to 25%. Besides, the pest or weed control at 100 ppm under setting [8] was 0 to 25%.

On to `CC(Oc1ncc(F)c(NC(=O)c2ccccc2)n1)c1ccc(F)cc1` (centres unmarked) [Compound 149], for which the pest or weed control at 25 ppm lay within 26 to 50% under setting [13] and 0 to 25% under setting [15]. Further, the pest or weed control at 100 ppm reads like this: under setting [14], 76 to 100%; under setting [16], 51 to 75%.

For the setting “24 h, one day protectant”, `Fc1cnc(OCCc2ccccc2)nc1NCc1ccc2c(c1)OCO2` [Compound 904] came in with a pest or weed control at 50 ppm of 0 to 25% and a pest or weed control at 200 ppm of 26 to 50%.

Under “24 h, one day protectant”, `Cc1cnc(CNc2nc(OCc3ccc(Cl)cc3)ncc2F)cn1` [Compound 886] registered a pest or weed control at 50 ppm of 76 to 100% and a pest or weed control at 200 ppm of 76 to 100%.

Regarding `Cc1ccc(COc2ncc(F)c(NC#N)n2)cc1` [Compound 1130], the pest or weed control at 25 ppm runs as follows: (24 h, one day protectant (1DP), 25 ppm (first 1DP column), percent disease control rating, read-out: SETTTR 1DP 25 ppm) 0 to 25%; (24 h, one day protectant (1DP), 25 ppm as printed (second 1DP column), percent disease control rating, read-out: SETTTR 1DP 25 ppm) 0 to 25%; under setting [15], 26 to 50%. Besides, the pest or weed control at 100 ppm under setting [16] was in the range of 0 to 25%.

For `Cn1ncc(C(=O)Nc2nc(O)ncc2F)c1Cl` [Compound 978], the pest or weed control at 25 ppm is, setting by setting: under setting [5], 0 to 25%; under setting [6], 0 to 25%; under setting [7], 0 to 25%. For the same compound, the pest or weed control at 100 ppm under setting [8] is 0 to 25%.

Consider `COc1ccc(Oc2ncc(F)c(N)n2)cc1` [Compound 573], for which the pest or weed control at 25 ppm under setting [9] was in the range of 26 to 50% and the pest or weed control at 25 ppm under setting [11] lay within 0 to 25%. The pest or weed control at 100 ppm is 51 to 75% under setting [10] and 0 to 25% under setting [12].

As for `Fc1ccc(COc2ncc(F)c(N3CCOCC3)n2)cc1` [Compound 897], for the setting “24 h, one day protectant”, the pest or weed control at 50 ppm was in the range of 0 to 25% and the pest or weed control at 200 ppm fell in the range of 51 to 75%.

As to `Nc1nc(OCc2ccc(OCc3ccc(F)cc3)cc2)ncc1F` [Compound 648], the pest or weed control at 25 ppm under setting [9] is 76 to 100% and the pest or weed control at 25 ppm under setting [11] was in the range of 76 to 100%. In addition, the pest or weed control at 100 ppm was 76 to 100% under setting [10] and 76 to 100% under setting [12].

For `CCOc1ncc(F)c(N)n1` [Compound 853], for the setting “24 h, one day protectant”, the pest or weed control at 50 ppm was in the range of 0 to 25% and the pest or weed control at 200 ppm is 0 to 25%.

`C=CCOC(=O)Nc1nc(OCc2cccc(OC)c2)ncc1F` [Compound 989]: the pest or weed control at 25 ppm lay in the range of 76 to 100% under setting [5], 76 to 100% under setting [6] and 51 to 75% under setting [7]. For the same compound, the pest or weed control at 100 ppm under setting [8] was 76 to 100%.

Where the note is “24 h, one day protectant”, `Cc1ccc(CNc2nc(OCc3ccco3)ncc2F)cc1` [Compound 914] came in with a pest or weed control at 50 ppm of 0 to 25% and a pest or weed control at 200 ppm of 76 to 100%.

Turning to `Cc1ccc(COc2ncc(F)c(NSc3ccccc3[N+](=O)[O-])n2)cc1` [Compound 443], the pest or weed control at 25 ppm was in the range of 76 to 100% under setting [1] and 26 to 50% under setting [3]. The pest or weed control at 100 ppm runs as follows: under setting [2], 76 to 100%; under setting [4], 26 to 50%.

In the case of `Cc1ccc(C(C)Oc2ncc(F)c(N)n2)cc1C` (centres unmarked) [Compound 145], the pest or weed control at 25 ppm reads like this: under setting [13], 76 to 100%; under setting [15], 76 to 100%. Further, the pest or weed control at 100 ppm lay within 76 to 100% under setting [14] and 76 to 100% under setting [16].

Turning to `COc1cccc(COc2ncc(F)c(NS(N)(=O)=O)n2)c1` [Compound 43, [5-Fluoro-2-(3-methoxybenzyloxy)pyrimidin-4-yl]sulfamide], the pest or weed control at 25 ppm runs as follows: under setting [13], 26 to 50%; under setting [15], 51 to 75%. Further, the pest or weed control at 100 ppm runs as follows: under setting [14], 51 to 75%; under setting [16], 51 to 75%.

For the setting “24 h, one day protectant”, `Fc1cnc(OCc2cccs2)nc1NCCc1ccccc1` [Compound 937] had a pest or weed control at 50 ppm of 76 to 100% and a pest or weed control at 200 ppm of 76 to 100%.

Consider `Fc1ccc(COc2ncc(F)c(NNc3ccccc3Cl)n2)cc1` [Compound 515], for which the pest or weed control at 25 ppm by setting is: under setting [1], 0 to 25%; under setting [3], 0 to 25%. In addition, the pest or weed control at 100 ppm by setting is: under setting [2], 76 to 100%; under setting [4], 0 to 25%.

Where the note is “24 h, one day protectant”, `Fc1cnc(OCc2ccco2)nc1NCc1ccc2c(c1)OCO2` [Compound 859] gave a pest or weed control at 50 ppm of 76 to 100% and a pest or weed control at 200 ppm of 76 to 100%.

In the case of `O=[N+]([O-])c1ccccc1SNc1nc(OCc2ccsc2)ncc1F` [Compound 157], the pest or weed control at 25 ppm runs as follows: under setting [13], 26 to 50%; under setting [15], 26 to 50%. Further, the pest or weed control at 100 ppm was 76 to 100% under setting [14] and 26 to 50% under setting [16].

Regarding `O=C(Nc1nc(OCc2ccc(F)cc2)ncc1F)c1ccccc1` [Compound 364], the pest or weed control at 25 ppm is 76 to 100% under setting [1] and 76 to 100% under setting [3]. For the same compound, the pest or weed control at 100 ppm under setting [2] is 76 to 100% and the pest or weed control at 100 ppm under setting [4] was 76 to 100%.
